From patent US20210283116A1, “METHODS OF TREATING ACUTE KIDNEY INJURY” (Mitobridge, Inc., priority 2016, published 2021) come the findings set out here.

Assay [1] has as its system rat model of acute kidney injury (ischemia reperfusion injury). Description: Ischemia reperfusion injury rat model of acute kidney injury, Compound A intravenously. Type of assay: in vivo, Sprague-Dawley male rats. The method, then:
Animals, surgery and dosing: Sprague-Dawley male rats approximately 280-300 g, with ad libitum access to standard feed and water were used in these experiments. Rats (n=8/group) were anesthetized with isoflurane and placed ventrally on a temperature controlled heated surgical platform. A skin incision was made on the dorsal surface, exposing both kidneys through flank incisions. Vascular clips were applied to both renal pedicles and occlusion lasted 45 minutes. After 45 min, the clips were removed, kidneys were monitored for successful reperfusion, and surgical sites were then sutured. The sham group (n=4 rats) was subjected to similar surgical procedures, except that the occluding clamps were not applied. Compound A was formulated as a fresh daily clear solution of the hydrate of the meglumine salt of Compound A (1.5 Molar equivalent of Compound A) in 5% dextrose. Compound A was dosed IV via tail vein at 3 mg/kg, 1 mg/kg or 0.3 mg/kg 4 hours after animals awoke from surgery and sham surgery and IRI control animals were similarly dosed with vehicle.
Blood collection: Twenty-four (24) hours after reperfusion, blood was collected in K2 EDTA tubes by retro-orbital bleeding from all groups under mild isoflurane anesthesia. Plasma was separated by centrifugation at 3000 rpm for 10 minutes at 4° C. Urine collection: all study animal groups were placed in metabolic cages immediately after surgery recovery and urine was collected for 24 or 48 hours. Urine volume was carefully measured and then was centrifuged at 3000 rpm for 10 min at 4° C. to remove sediments. Plasma and urine creatinine were analyzed using a fully automated clinical biochemistry analyzer (Siemens Dimension® Xpand® Plus Integrated Chemistry System). Urinary NGAL was analyzed using a BioPorto ELISA kit. Creatinine clearance was calculated as follows: […]
GraphPad Prism software, Version 6.05 was used for graphing and statistical testing. Creatinine was tested for normal distribution in all groups via a D'Agostino-Pearson omnibus normality test and a Shapiro-Wilk normality test. Statistical significance (p<0.05) is determined by an ordinary One-way ANOVA followed by Dunnett's multiple comparison using the […] as the control group. **p<0.01, ***p<0.001 and ****p<0.0001 vs. IR-Vehicle.

For assay [2] the test system is unchanged. The assay can be described thus: Ischemia reperfusion injury rat model of acute kidney injury, Compound B orally. Format: in vivo, Sprague-Dawley male rats. The method, then: Animals, surgery and dosing: Sprague-Dawley male rats approximately 280-300 g, with ad libitum access to standard feed and water were used in these experiments. Rats (n=8/group) were anesthetized with isoflurane and placed ventrally on a temperature controlled heated surgical platform. A skin incision was made on the dorsal surface, exposing both kidneys through flank incisions. Vascular clips were applied to both renal pedicles and occlusion lasted 45 minutes. After 45 min, the clips were removed, kidneys were monitored for successful reperfusion, and surgical sites were sutured. The sham group (n=4 rats) was subjected to similar surgical procedures, except that the occluding clamps were not applied. Compound B was formulated as a fresh daily suspension in 0.25% sodium carboxymethyl-cellulose, 0.25% Tween-80 in purified water. Compound B was dosed orally at 30 mg/kg 4 hours after animals awoke from surgery and sham surgery and IRI control animals were similarly dosed with vehicle. Blood collection: Twenty-four (24) hours after reperfusion, blood was collected in K2 EDTA tubes by retro-orbital bleeding from all groups under mild isoflurane anesthesia. Plasma was separated by centrifugation at 3000 rpm for 10 minutes at 4° C. Urine collection: all study animal groups were placed in metabolic cages immediately after surgery recovery and urine was collected for 24 hours. Urine volume was carefully measured and then was centrifuged at 3000 rpm for 10 min at 4° C. to remove sediments. Plasma and urine creatinine were analyzed using a fully automated clinical biochemistry analyzer (Siemens Dimension® Xpand® Plus Integrated Chemistry System). Creatinine clearance was calculated as follows: […]
GraphPad Prism software, Version 6.05 was used for graphing and statistical testing. Data was tested for normal distribution in all groups via a D'Agostino-Pearson omnibus normality test and a Shapiro-Wilk normality test. […] Statistical significance is determined by p<0.05 of IRI-vehicle compared to compound treated groups. **p<0.01 and ***p<0.001 vs. IR-Vehicle. […]

Each structure is given as a SMILES string.

With `Cc1cnc(-c2ccc(C(F)(F)F)nc2)n1Cc1ccccc1OCCC[C@@H](C)CC(=O)O` [Compound A, (R)-3-methyl-6-(2-((5-methyl-2-(6-(trifluoromethyl)pyridin-3-yl)-1H-imidazol-1-yl)methyl)phenoxy)hexanoic acid], in assay [1] (0.3 mg/kg, 1 mg/kg or 3 mg/kg IV 4 hours after ischemia, 24 hours after kidney injury, vs. IR-Vehicle), the “kidney function (creatinine clearance)” value is “improves kidney function”. Besides, the plasma creatinine result in assay [1] (0.3 mg/kg, 1 mg/kg or 3 mg/kg IV 4 hours after ischemia, 24 hours after reperfusion, vs. IR-Vehicle) is given as “significantly reduces plasma creatinine”. Besides, the “early kidney injury biomarker NGAL (urinary)” value in assay [1] (0.3 mg/kg, 1 mg/kg or 3 mg/kg IV 4 hours after ischemia, 48 hours after kidney injury, vs. IR-Vehicle) is “reduces the early kidney injury biomarker NGAL”. Besides, in assay [1] (dosed IV 4 hours after ischemia, hydrate of meglumine salt in 5% dextrose), the kidney injury result is “reduces kidney injury”.
For `Cc1cc(SCc2nn(-c3ccc(C(F)(F)F)cc3)nc2C)ccc1OCC(=O)O` [Compound B], the plasma creatinine result in assay [2] (30 mg/kg orally 4 hours after ischemia, 24 hours after reperfusion, vs. IR-Vehicle) was “reduces plasma creatinine”. Further, the “kidney function (creatinine clearance)” value in assay [2] (30 mg/kg orally 4 hours after ischemia, 24 hours urine collection, vs. IR-Vehicle) is “improves kidney function”. Moreover, the kidney injury entry in assay [2] (30 mg/kg orally, dosed 4 hours after ischemia) is reported as “reduces kidney injury”.
